Test results reported in patent publication US5475010A, “7'-amino-naphthazarin antibiotic derivatives” (Gruppo Lepetit S.p.A., priority 1991, dated 1995).
Converted amounts (≈) assume the structure as drawn. Where a name gives a salt, the structure may show the parent alone. Read-outs that look alike come from different tables or passages of the source.

Legend:
Assay type in all cases: cell-based
[1] = test system: Pseudomonas aeruginosa ATCC 10145; assay: MIC by broth microdilution, Pseudomonas aeruginosa; conditions: ATCC10145, Table 2, internal code 4, approx. 10^4 cfu/ml, Iso-Sensitest broth, 37° C., 20-24 h, air
[2] = test system: Enterococcus faecalis ATCC 7080; assay: MIC by broth microdilution, Enterococcus faecalis; conditions: ATCC7080
[3] = test system: Bacteroides fragiles ATCC 9689; assay: MIC by broth microdilution, Bacteroides fragilis; conditions: ATCC9689, Table 2, internal code 1010, approx. 10^4 cfu/ml, Wilkins-Chalgren broth, 37° C., 48 h, N2-CO2-H2 (80:10:10)
[4] = test system: Escherichia coli SKF 12140; assay: MIC by broth microdilution, Escherichia coli
[5] = test system: Streptococcus pneumonieae UC 41; assay: MIC by broth microdilution, Streptococcus pneumoniae
[6] = test system: Staphilococcus epidermidis ATCC 12228; assay: MIC by broth microdilution, Staphylococcus epidermidis; conditions: ATCC12228
[7] = test system: Staphilococcus haemolyticus (clin. isolate); assay: MIC by broth microdilution, Staphylococcus haemolyticus
[8] = test system: Proteus vulgaris X19H ATCC 881; assay: MIC by broth microdilution, Proteus vulgaris
[9] = test system: Staphilococcus aureus Tour; assay: MIC by broth microdilution, Staphylococcus aureus Tour; conditions: Iso-Sensitest broth, 37° C., 20-24 h, air
[10] = test system: Streptococcus pyogenes C 203; assay: MIC by broth microdilution, Streptococcus pyogenes; conditions: C203
[11] = test system: Propionibacterium acnes ATCC 6919; assay: MIC by broth microdilution, Propionibacterium acnes; conditions: Cutibacterium acnes
[12] = test system: Tricophyton mentagrophytes; assay: MIC by broth microdilution, Trichophyton mentagrophytes; conditions: 72 h
[13] = test system: Candida albicans SKF 2270; assay: MIC by broth microdilution, Candida albicans; conditions: Table 2; internal code 145; approx. 10^4 cfu/ml; buffered Yeast Nitrogen Base broth + glucose + L-asparagine; 37° C., 20-24 h, air
[14] = test system: Clostridium perfringens ISS 30543; assay: microbe, parasite or virus in culture; conditions: ISS30543, 48 h
[15] = Table 2, internal code 165, + 30% bovine serum
[16] = Table 2, internal code 165, inoculum 10^6 cfu/ml
[17] = Table 2, internal code 165, inoculum approx. 10^4 cfu/ml
[18] = ATCC6919, Table 2, internal code 1014, approx. 10^4 cfu/ml, Wilkins-Chalgren broth, 37° C., 48 h, N2-CO2-H2 (80:10:10), read-out: MIC
[19] = Table 2, internal code 634, 1% (v/v) suspension of mycelia and conidia, YM broth, 30° C., air, read-out: MIC
[20] = Table 2, internal code 165, + 30% bovine serum, read-out: MIC

Row | Structure (SMILES) | MIC [1] | MIC [2] | MIC [3] | MIC ([4]; SKF12140) | MIC ([5]; UC41) | MIC [6] | MIC [7] | MIC ([8]; ATCC881) | MIC [9, 15] | MIC [9, 16] | MIC [9, 17] | MIC [10] | MIC [11, 18] | MIC [12] | MIC ([11]; ATCC6919, 48 h) | MIC [14] | further results
1 | COC(=O)c1cc2cc3c(c(O)c2c(=O)o1)OC1(Cc2c(O)c4c(c(O)c2O1)C(=O)C(NCCO)=CC4=O)CC3O (centres unmarked) [Example 21, 7'-(2-hydroxyethylen)-amino purpuromycin] | ≥ 128 µg/mL | 0.06 µg/mL (≈ 0.106 µM) | 0.13 µg/mL (≈ 0.229 µM) | ≥ 128 µg/mL | 0.016 µg/mL (≈ 0.0282 µM) | 0.06 µg/mL (≈ 0.106 µM) | 0.13 µg/mL (≈ 0.229 µM) | ≥ 128 µg/mL | 1 µg/mL | 0.13 µg/mL (≈ 0.229 µM) | 0.06 µg/mL (≈ 0.106 µM) | 0.03 µg/mL (≈ 0.0529 µM) | 0.004 µg/mL (≈ 0.00705 µM) | ≥ 128 µg/mL |  |  | 
2 | COC(=O)c1cc2cc3c(c(O)c2c(=O)o1)OC1(CC3)Cc2c(O)c3c(c(O)c2O1)C(=O)C(N)=CC3=O (centres unmarked) [Example 30, 7'-Amino-γ-rubromycin] | > 128 µg/mL | 0.03 µg/mL (≈ 0.0591 µM) | 0.06 µg/mL (≈ 0.118 µM) | > 128 µg/mL | 0.016 µg/mL (≈ 0.0315 µM) | 0.016 µg/mL (≈ 0.0315 µM) | 0.016 µg/mL (≈ 0.0315 µM) | > 128 µg/mL | 1 µg/mL |  | 0.016 µg/mL (≈ 0.0315 µM) | 0.03 µg/mL (≈ 0.0591 µM) |  |  | 0.016 µg/mL (≈ 0.0315 µM) |  | MIC [13]: 16 µg/mL; MIC [12, 19]: 16 µg/mL (≈ 31.5 µM)
3 | COC(=O)c1cc2cc3c(c(O)c2c(=O)o1)OC1(Cc2c(O)c4c(c(O)c2O1)C(=O)C(NCCN(C)C)=CC4=O)CC3O (centres unmarked) [Example 6, 7'-(2-dimethylaminoethylen)amino purpuromycin hydrochloride] | 128 µg/mL |  | 0.5 µg/mL |  |  |  | 0.5 µg/mL | 128 µg/mL |  |  |  |  | 0.06 µg/mL | 128 µg/mL |  |  | MIC ([4]; SKF12140, Table 2, internal code 47, approx. 10^4 cfu/ml, Iso-Sensitest broth, 37° C., 20-24 h, air, read-out: MIC): 16 µg/mL; MIC ([5]; UC41, Table 2, internal code 44, approx. 10^4 cfu/ml, Todd Hewitt broth, 37° C., 20-24 h, air, read-out: MIC): 0.06 µg/mL; MIC [13]: 64 µg/mL; MIC [9, 20]: 0.25 µg/mL
4 | COC(=O)c1cc2cc3c(c(O)c2c(=O)o1)OC1(Cc2c(O)c4c(c(O)c2O1)C(=O)C(NCC#N)=CC4=O)CC3O (centres unmarked) [Example 16, 7'-(cyanomethylen)amino purpuromycin] | > 128 µg/mL | 0.13 µg/mL (≈ 0.231 µM) | 0.5 µg/mL (≈ 0.889 µM) | > 128 µg/mL | 0.03 µg/mL (≈ 0.0533 µM) | 0.13 µg/mL (≈ 0.231 µM) | 0.13 µg/mL (≈ 0.231 µM) | > 128 µg/mL | 2 µg/mL | 0.13 µg/mL (≈ 0.231 µM) | 0.13 µg/mL (≈ 0.231 µM) | 0.13 µg/mL (≈ 0.231 µM) |  | 128 µg/mL (≈ 228 µM) | 0.016 µg/mL (≈ 0.0284 µM) | 0.13 µg/mL (≈ 0.231 µM) | 
5 | COC(=O)c1cc2cc3c(c(O)c2c(=O)o1)OC1(Cc2c(O)c4c(c(O)c2O1)C(=O)C(NCC(F)(F)F)=CC4=O)CC3O (centres unmarked) [Example 23, 7'-(2,2,2-trifluoroethylen)-amino purpuromycin] | > 128 µg/mL | 0.03 µg/mL (≈ 0.0496 µM) | 0.06 µg/mL (≈ 0.0991 µM) | > 128 µg/mL | 0.06 µg/mL (≈ 0.0991 µM) | 0.016 µg/mL (≈ 0.0264 µM) | 0.016 µg/mL (≈ 0.0264 µM) | > 128 µg/mL | 2 µg/mL | 0.03 µg/mL (≈ 0.0496 µM) | 0.016 µg/mL (≈ 0.0264 µM) | 0.13 µg/mL (≈ 0.215 µM) | 0.008 µg/mL (≈ 0.0132 µM) | > 128 µg/mL |  | 0.03 µg/mL (≈ 0.0496 µM) | 
6 | CCNC1=CC(=O)c2c(O)c3c(c(O)c2C1=O)OC1(C3)CC(O)c2cc3cc(C(=O)OC)oc(=O)c3c(O)c2O1 (centres unmarked) [Example 10, 7'-ethylamino purpuromycin] | > 128 µg/mL | 0.06 µg/mL (≈ 0.109 µM) | 0.06 µg/mL (≈ 0.109 µM) | > 128 µg/mL | 0.06 µg/mL (≈ 0.109 µM) | 0.06 µg/mL (≈ 0.109 µM) | 0.06 µg/mL (≈ 0.109 µM) | > 128 µg/mL |  | 0.06 µg/mL (≈ 0.109 µM) | 0.06 µg/mL (≈ 0.109 µM) | 0.06 µg/mL (≈ 0.109 µM) |  |  | 0.06 µg/mL (≈ 0.109 µM) |  | MIC [9, 20]: 1 µg/mL; MIC [12, 19]: ≤ 0.13 µg/mL
7 | CNC1=CC(=O)c2c(O)c3c(c(O)c2C1=O)OC1(CCc2cc4cc(C(=O)OC)oc(=O)c4c(O)c2O1)C3 (centres unmarked) [Example 32, 7'-methylamino γ-rubromycin] | > 128 µg/mL | 0.03 µg/mL (≈ 0.0575 µM) | 0.06 µg/mL (≈ 0.115 µM) | > 128 µg/mL | 0.016 µg/mL (≈ 0.0307 µM) | 0.016 µg/mL (≈ 0.0307 µM) | 0.016 µg/mL (≈ 0.0307 µM) | > 128 µg/mL | 0.25 µg/mL | 0.03 µg/mL (≈ 0.0575 µM) | 0.016 µg/mL (≈ 0.0307 µM) | 0.03 µg/mL (≈ 0.0575 µM) | 0.004 µg/mL (≈ 0.00767 µM) | > 128 µg/mL |  | 0.016 µg/mL (≈ 0.0307 µM) | 
8 | COC(=O)c1cc2cc3c(c(O)c2c(=O)o1)OC1(Cc2c(O)c4c(c(O)c2O1)C(=O)C(N)=CC4=O)CC3O (centres unmarked) [Example 25, 7'-Aminopurpuromycin] | > 128 µg/mL | 0.06 µg/mL (≈ 0.115 µM) | 0.06 µg/mL (≈ 0.115 µM) | > 128 µg/mL | 0.016 µg/mL (≈ 0.0306 µM) | 0.03 µg/mL (≈ 0.0573 µM) | 0.06 µg/mL (≈ 0.115 µM) | > 128 µg/mL | 1 µg/mL | 0.06 µg/mL (≈ 0.115 µM) | 0.03 µg/mL (≈ 0.0573 µM) | 0.03 µg/mL (≈ 0.0573 µM) | 0.008 µg/mL (≈ 0.0153 µM) |  |  |  | 
9 | COC(=O)c1cc2cc3c(c(O)c2c(=O)o1)OC1(Cc2c(O)c4c(c(O)c2O1)C(=O)C(NCCNC(=O)OC(C)(C)C)=CC4=O)CC3O (centres unmarked) [Example 18, 7'-(2-(N--BOC-amino)ethylen)-amino purpuromycin] | > 128 µg/mL | 0.13 µg/mL (≈ 0.195 µM) | 0.5 µg/mL (≈ 0.75 µM) | > 128 µg/mL | 0.06 µg/mL (≈ 0.09 µM) | 0.06 µg/mL (≈ 0.09 µM) | 0.06 µg/mL (≈ 0.09 µM) | > 128 µg/mL | 2 µg/mL | 0.13 µg/mL (≈ 0.195 µM) | 0.13 µg/mL (≈ 0.195 µM) | 0.13 µg/mL (≈ 0.195 µM) |  | > 128 µg/mL | 0.016 µg/mL (≈ 0.024 µM) | 0.25 µg/mL (≈ 0.375 µM) | 
10 | COC(=O)c1cc2cc3c(c(O)c2c(=O)o1)OC1(Cc2c(O)c4c(c(O)c2O1)C(=O)C(NCCN)=CC4=O)CC3O (centres unmarked) [Example 19, 7'-(2-aminoethylen)-amino purpuromycin trifluoroacetate] | > 128 µg/mL | 2 µg/mL | > 128 µg/mL | > 128 µg/mL | 1 µg/mL | 1 µg/mL | 1 µg/mL |  | 8 µg/mL | 1 µg/mL | 1 µg/mL | 2 µg/mL |  | > 128 µg/mL | 0.5 µg/mL | 0.5 µg/mL | MIC ([8]; ATCC881, Table 2, internal code 79, approx. 10^4 cfu/ml, Iso-Sensitest broth, 37° C., 20-24 h, air, read-out: MIC): > 128 µg/mL
